From patent US8288375B2, “Fungicidal bicyclic pyrazoles” (E.I. du Pont de Nemours and Company, priority 2007, dated 2012)
Marks after values point to notes of the source that are not given here.

What was measured:
Format in all cases: in vivo
[1] = test system: Erysiphe graminis f. sp. tritici; assay: Test A: wheat powdery mildew, test suspension sprayed on wheat seedlings, disease rating; conditions: 200 ppm test suspension, 100 = 100% disease control, 0 = no control
[2] = test system: Puccinia recondite f sp. tritici; assay: Test B: wheat leaf rust, test suspension sprayed on wheat seedlings, disease rating;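 further: 200 ppm unless marked * meaning 40 ppm or ** meaning 10 ppm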
[3] = test system: Fusarium graminearum; assay: whole plant or invertebrate
[4] = test system: Septoria nodorum; assay: Test D: wheat glume blotch, test suspension sprayed on wheat seedlings, disease rating; conditions: 200 ppm test suspension
[5] = test system: Septoria tritici; assay: Test E: wheat leaf blotch, test suspension sprayed on wheat seedlings, disease rating;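 further: 200 ppm unless marked * meaning 40 ppm or ** meaning 10 ppm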
[6] = test system: Colletotrichum orbiculare; assay: Test F: cucumber Colletotrichum anthracnose, test suspension sprayed on cucumber seedlings, disease rating; conditions: for Test F disease control rating: 200 ppm test suspension
[7] = test system: Alternaria solani; assay: Test G: tomato early blight, test suspension sprayed on seedlings, disease rating; conditions: for Test G disease control rating: 40 ppm test suspension (*);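 on all read-outs here: 200 ppm unless marked * meaning 40 ppm or ** meaning 10 ppm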
[8] = test system: Botrytis cinerea; assay: Test H: tomato Botrytis, test suspension sprayed on tomato seedlings, disease rating; conditions: 200 ppm test suspension
[9] = test system: Rhizoctonia oryzae; assay: Test I: turf brown patch, test suspension sprayed on creeping bent grass seedlings, disease rating; conditions: 200 ppm test suspension
[10] = test system: Phytophthora infestans; assay: whole plant or invertebrate
[11] = test system: Pythium aphanidermatum; assay: Test L: bluegrass pythium blight, test suspension sprayed on bluegrass seedlings, disease rating;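 further: 200 ppm unless marked * meaning 40 ppm or ** meaning 10 ppm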
[12] = test system: Plasmopara viticola; assay: Test K: grape downy mildew, grape seedlings inoculated and then sprayed, disease rating; conditions: 200 ppm test suspension

Compound	Test A disease control rating [1]	Test D disease control rating [4]	Test F disease control rating [6]	Test H disease control rating [8]	Test I disease control rating [9]	Test B disease control rating ([2]; 40 ppm test suspension (*))	Test C disease control rating ([3]; 40 ppm test suspension (*))	Test E disease control rating ([5]; 40 ppm test suspension (*))	Test G disease control rating [7]	Test J disease control rating ([10]; 40 ppm test suspension (*))	Test L disease control rating ([11]; 40 ppm test suspension (*))	further results
CC(=O)N1CCCc2c(-c3ccnc(NC4CC4)n3)c(-c3ccc(F)cc3)nn21 [Compound 134, 1-[3-[2-(cyclopropylamino)-4-pyrimidinyl]-2-(4-fluorophenyl)-5,6-dihydropyrazolo[1,5-b]pyridazin-7(4H)-yl]ethanone]												pest or weed control at 200 ppm ([1]; Blumeria graminis, 192 h): 91%; pest or weed control at 40 ppm ([2]; Puccinia, 192 h, 40 ppm test suspension (*)): 85%; pest or weed control at 40 ppm ([3]; Fusarium graminearum, in Triticum aestivum, 192 h, read-out: Test C disease control rating): 84%; pest or weed control at 200 ppm ([4]; Parastagonospora nodorum, 216 h): 96%; pest or weed control at 10 ppm ([5]; Zymoseptoria tritici, 504 h, 10 ppm test suspension (**)): 77%; pest or weed control at 40 ppm ([6]; Colletotrichum orbiculare, 144 h, 40 ppm test suspension (*)): 99%; pest or weed control at 10 ppm ([7]; Alternaria solani, 168 h, 10 ppm test suspension (**)): 98%; pest or weed control at 200 ppm ([8]; Botrytis cinerea, 120 h): 53%; pest or weed control at 200 ppm ([9]; Waitea circinata, in Agrostis stolonifera, 120 h): 24%; pest or weed control at 10 ppm ([10]; Phytophthora infestans, in Solanum lycopersicum, 120 h, read-out: Test J disease control rating): 90%; pest or weed control at 40 ppm ([11]; Pythium aphanidermatum, 120 h, 40 ppm test suspension (*)): 100%
COCC(C)Nc1nccc(-c2c(-c3ccc(C)cc3)nn3c2CCC3)n1 (stereo not shown) [compound 89]	21%	60%	0%	8%	0%							Test C disease control rating ([3]; 200 ppm test suspension): 100%; Test J disease control rating ([10]; 200 ppm test suspension): 0%; Test K disease control rating [12]: 0%; Test L disease control rating ([11]; 200 ppm test suspension): 99%
COCC(C)Nc1nccc(-c2c(-c3ccc(OC)cc3)nn3c2CCC3)n1 (stereo not shown) [compound 86]	0%	51%	0%	0%	0%							Test C disease control rating ([3]; 200 ppm test suspension): 0%; Test J disease control rating ([10]; 200 ppm test suspension): 94%; Test K disease control rating [12]: 0%; Test L disease control rating ([11]; 200 ppm test suspension): 99%
CC(C)C(CO)Nc1nccc(-c2c(-c3ccc(F)cc3)nn3c2CCCC3)n1 (stereo not shown) [compound 74]	20%	60%	0%	0%	0%	91* %	10* %	86* %	0* %	0* %	93* %	
CN(N)c1nccc(-c2c(-c3ccc(F)cc3)nn3c2CCCC3)n1 [compound 70]	83%	90%	91%	29%	9%	0* %	0* %	84* %	46* %	53* %	98* %	
CC(CO)Nc1nccc(-c2c(-c3ccc(F)cc3)nn3c2CCCC3)n1.Cl (stereo not shown) [compound 72]	0%	82%	0%	77%	0%	94* %	0* %	47* %	98* %	99* %	100* %	
CCCC(CO)Nc1nccc(-c2c(-c3ccc(F)cc3)nn3c2CCCC3)n1 (stereo not shown) [compound 73]	0%	78%	0%	0%	0%	85* %	0* %	84* %	0* %	17* %	98* %	
Fc1ccc(-c2nn3c(c2-c2ccnc(NOCC4CCC4)n2)CCCC3)cc1 [compound 75]	31%	0%	0%	0%	0%	0* %	0* %	92* %	0* %	0* %	0* %	
CC(C)Nc1nccc(-c2c(-c3ccc(F)cc3)nn3c2CCCN3)n1 [Compound 136]	0%	97%	0%	41%	0%	92* %	77* %	28* %	99* %	57* %	100* %	
CC(CO)Nc1nccc(-c2c(-c3ccc(F)cc3)nn3c2CCCC3)n1 (stereo not shown) [Compound 5, 2-[[4-[2-(4-fluorophenyl)-4,5,6,7-tetrahydropyrazolo[5,1-a]pyridin-3-yl]-2-pyrimidinyl]amino]-1-propanol]	96%	97%	99%	99%	0%				98* %			Test B disease control rating ([2]; 200 ppm test suspension): 100%; Test C disease control rating ([3]; 200 ppm test suspension): 100%; Test E disease control rating ([5]; 200 ppm test suspension): 97%; Test J disease control rating ([10]; 200 ppm test suspension): 99%; Test L disease control rating ([11]; 200 ppm test suspension): 100%
C=CCN1CNCc2c(-c3ccnc(NC4CC4)n3)c(-c3ccc(F)cc3)nn21 [Compound 137]	86%	92%	0%	0%	0%	0* %	69* %	73* %	99* %	53* %	99* %	
CC(=O)N1CCn2nc(-c3ccc(F)cc3)c(-c3ccnc(NC(C)C)n3)c2C1 [Compound 130]	86%	97%	0%	34%	0%	92* %	0* %	97* %	58* %	100* %	100* %	
CC(C)Nc1nccc(-c2c(-c3ccc(F)cc3)nn3c2CNCC3)n1.Cl [Compound 133]	0%	0%	98%	0%	0%	19* %	42* %	0* %	0* %	73* %	99* %	
